Test results taken from patent publication US4201725A, “Secondary amines” (priority 1974, dated 1980).
Entries after “also recorded” stand apart in the source; their conditions may differ. Where two headings read alike, the source gives them in different places.

Columns and labels:
electrocardiogram = assay: Effect on the electrocardiogram; assay type: in vivo; details: amantadine: 5 mg/kg injected, dog
[1] = test system: arterial pressure and nictitating membrane (norepinephrine); assay: Influence on peripheral noradrenergic phenomena (norepinephrine, anaesthetized cat); details: for Contractile reaction of the nictitating membrane without electric stimulation: at 0 mg/kg: 0; for Contractile reaction of the nictitating membrane with electric stimulation: at 0 mg/kg: Compound 1 17, amantadine 20; for Increase in arterial pressure after injection of norepinephrine: at 0 mg/kg: Compound 1 26, amantadine 28
[2] = test system: cholinergic effects of tremorine; assay: Anti-tremorine test in vivo; parameters: species or system mice (male, OF1 strain); details: for antitremorine properties (in words): 5 mg/kg Compound 1, 40 mg/kg amantadine; for central cholinergic effects (normal and provoked tremor): identical to the peripheral score of 4
Experimental: When injected into mice, tremorine produces peripheral effects i.e. weeping, sweating, salivation and diarrhoea and central effects i.e. tremor and akinesia. Such effects are due to an increase in the amount of intracerebral acetylcholine and serotonine.
[…] Thirty minutes later a dose of 10 mg/kg of tremorine was injected by intraperitoneal route and, at different times after this injection, note was taken of the cholinergic effects on each animal in accordance with the following scale:

[3] = SPERBER et al., J. Amer. Chem. Soc., 71, 3352 (1949); cited from earlier work
[4] = Spasmolytic activity in vivo; details: at antiparkinson doses, well below the toxic dose
[5] = test system: isolated duodenum of the rat; assay: MAGNUS test: cholinolytic/spasmolytic activity on acetylcholine spasm in vitro
Excerpt: This test consists in determining the dose of acetylcholine which, when added to the bath, provokes spasm of the isolated duodenum of the rat. The next step consists in determining the dose of the compound under study which, when added to the bath 30 seconds before the acetylcholine, reduces the spasm.

[6] = test system: reserpine-induced catatonia; assay: Inhibition of reserpine-induced catatonia (preventive, oral compound 30 min before reserpine); assay type: in vivo, rat (male, OFA strain); details: for Inhibition of reserpine-induced catatonia: 6 mg/kg oral; for index of reserpine-induced catatonia (numerator of ratio): 0.031 m mol/kg oral, hydrochloride form
Experimental: After sufficient doses of reserpine have been administered to the rat, a series of symptoms occur, more particularly ptosis, catatonia and a drop in central temperature. These symptoms are caused by the depletion of the intragranular reserve pool of biogenetic amines at the synaptic terminals.
An oral dose of the compound to be studied in aqueous solution was administered to batches of 10 male rats of the OFA strain weighing about 150 to 200 g. Thirty minutes later a dose of 5 mg/kg of reserpine was given by intraperitoneal route. Three hours after the injection of reserpine, the animals were suspended by the four paws to a horizontally stretched wire fixed at 15 cm from the ground. The catatonia animals were those which maintained the position so given for at least 30 seconds. […] The maximum score was therefore 10 per batch. An identical trial was undertaken with control animals which received reserpine but none of the compounds being studied.

[7] = test system: neuroleptic-induced catatonia; assay: Suppression of neuroleptic (prochlorperazine)-induced catatonia (curative treatment); assay type: in vivo, rat (male, OFA strain); details: 5 mg/kg vs 80 mg/kg amantadine
Experimental: Batches of 5 male rats of the OFA strain were given 12.5 mg/kg of prochlorperazine by intraperitoneal route. Fifty-five minutes later, an oral dose in aqueous solution of the compound to be studied was administered to all the animals with the exception of the control group. The progress of the catatonia was noted following the same scale as that used in the tests described above.

catalepsy = assay: Prochlorperazine-induced catalepsy (crossing of homolateral paws); assay type: in vivo, rat; details: 5 mg/kg oral 30 min before prochlorperazine i.p.; 3 h after injection
Experimental: Additional trials were carried out on rats with Compound 1 and amantadine. These trails involved catalepsy as evidenced by the crossing of the animal's homolateral paws.

[8] = test system: reserpine-induced catatonia; assay: Suppression of reserpine-induced catatonia (curative treatment); assay type: in vivo, rat (male, OFA strain); details: 2.5 and 5 mg/kg oral vs 80 mg/kg amantadine
Experimental: Batches of 5 male rats of the OFA strain, weighing 150 to 200 g were given 5 mg/kg of reserpine by intraperitoneal route. One hour and 45 minutes later, namely when the animals were in a state of catatonia, an aqueous dose of the compound to be studied was administered by oral route to all the animals with the exception of the control group.
The progress of the catatonia was then noted following the scale used in the tests described hereabove.
The maximum score was thus 5 per batch which means that all the animals of the batch were considered to be still in a state of catatonia.

[9] = SPERBER et al., J. Amer. Chem. Soc., 71, 3352 (1949); cited from earlier work; remark: listed apart in the source
in vivo = details: mouse, po
Tremor-inducing action = details: 0.031 m mol/kg oral, 30 min, hydrochloride form; for number of animals presenting tremors (denominator of ratio): batches of 10 rats
[10] = test system: neuroleptic-induced catatonia; assay: Inhibition of neuroleptic (prochlorperazine)-induced catatonia (preventive); assay type: in vivo, rat (male, OFA strain); details: 6 mg/kg oral
Experimental: The blocking of dopaminergic receptors by neuroleptics in the extra-pyramidal system induces catatonia in the rat. Catatonia is differentiated from sedative properties by means of the test used hereabove for reserpine-induced catatonia. The same system of scoring was also employed in the present case.
An oral dose of the compound to be studied in aqueous solution was administered to batches of 10 male rats of the OFA strain weighing about 150 to 200 g.
Three hours after the injection of this latter compound, catatonia was measured. An identical trial was also carried out with control animals which received prochlorperazine but none of the compounds under study.
The scoring system used was that given hereabove for Table I.

monoamine oxidase = assay: Inhibitory effect on monoamine oxidase

## NC12CC3CC(CC(C3)C1)C2 [Amantadine, 1-amino-adamantane, reference compound]
electrocardiogram
  effect on the electrocardiogram (in words): provokes cardiac arrhythmia due to ventricular extrasystoles
[1]; cat, i.v.
  effect on the nictitating membrane (in words): stimulates the contractile reactions of the nictitating membrane but does not potentiate the effects of the electric stimulation
  potentiation of norepinephrine / peripheral adrenergic effects (in words): potentiates exogenous norepinephrine from 1 mg/kg
[1]; cat, i.v., listed as amantadine
  potentiation of norepinephrine / peripheral adrenergic effects (in words): potentiates the peripheral adrenergic effects
[2]
  antitremorine properties (in words): devoid of antitremorine properties
[2]; 40 mg/kg oral
  central cholinergic effects (normal and provoked tremor): Identical results

## CCCC(N)(CCC)CCC [Compound 1]
[3]
  spasmolytic activity (in words): less spasmolytic
[4]
  spasmolytic activity in vivo (in words): non-existent
[5]
  spasmolytic / cholinolytic activity in vitro (in words): virtually non-existent in comparison with that of atropine; also recorded: extremely weak cholinolytic action
[5]; listed as tri-n-propylmethylamine
  spasmolytic / cholinolytic activity in vitro (in words): very weak, in fact practically non-existent
[1]; cat, i.v.
  potentiation of norepinephrine / peripheral adrenergic effects (in words): does not potentiate the effects either of exogenous norepinephrine or of endogenous norepinephrine
[1]; cumulative dose 0.1 mg/kg i.v.
  Contractile reaction of the nictitating membrane without electric stimulation: 0 mm
  Contractile reaction of the nictitating membrane with electric stimulation: 15 mm
  Increase in arterial pressure after injection of norepinephrine: 18 mm Hg
[1]; cumulative dose 1 mg/kg i.v.
  Contractile reaction of the nictitating membrane without electric stimulation: 0 mm
  Contractile reaction of the nictitating membrane with electric stimulation: 16 mm
  Increase in arterial pressure after injection of norepinephrine: 25 mm Hg
[1]; cumulative dose 3 mg/kg i.v.
  Contractile reaction of the nictitating membrane without electric stimulation: 0 mm
  Contractile reaction of the nictitating membrane with electric stimulation: 17 mm
  Increase in arterial pressure after injection of norepinephrine: 29 mm Hg
[1]; cumulative dose 5 mg/kg i.v.
  Contractile reaction of the nictitating membrane without electric stimulation: 0 mm
  Contractile reaction of the nictitating membrane with electric stimulation: 16 mm
  Increase in arterial pressure after injection of norepinephrine: 25 mm Hg
[1]; cumulative dose 10 mg/kg i.v.
  Contractile reaction of the nictitating membrane without electric stimulation: 0 mm
  Contractile reaction of the nictitating membrane with electric stimulation: 12 mm
  Increase in arterial pressure after injection of norepinephrine: 22 mm Hg
[6]; rat, in vivo
  activity in pharmacological trials (in words): marked degree of activity
[7]
  action against neuroleptic-induced catatonia (in words): acts against neuroleptic-induced catatonia more rapidly than does a dose of 80 mg/kg of amantadine
catalepsy
  inhibition of the catalepsy: complete inhibition of the catalepsy
[2]
  antitremorine properties (in words): devoid of antitremorine properties
[2]; 5 mg/kg oral
  central cholinergic effects (normal and provoked tremor): Identical results
[2]; therapeutic doses
  cholinolytic properties in vivo (in words): absence of cholinolytic properties
[8]
  suppression of reserpine-induced catatonia (in words): suppresses reserpine-induced catatonia more rapidly than a dose of 80 mg/kg of amantadine
[9]
  toxicity (in words): more toxic than the corresponding trialkylethylamines

## CCCCC(N)(CCCC)CCCC [Compound 12, 1,1-Di-n-butyl-n-pentylamine]
[3]
  spasmolytic activity (in words): less spasmolytic
In vivo
  selectivity ratio: 25
[9]
  toxicity (in words): more toxic than the corresponding trialkylethylamines

## CCCC(CCC)(CCC)NC [Compound 27, N-Methyl-1,1-di-n-propyl-n-butylamine]
Tremor-inducing action
  number of animals presenting tremors (denominator of ratio): 4
  ratio of index of reserpine-induced catatonia inhibition to number of animals presenting tremors: 1
[6]
  Inhibition of reserpine-induced catatonia: 4 (represents 100% inhibition of catatonia in comparison with the controls)
  index of reserpine-induced catatonia (numerator of ratio): 4 (represents 100% inhibition of catatonia in comparison with the controls)
In vivo
  selectivity ratio: 16.5
[10]
  Inhibition of the neuroleptic-induced catatonia: 3 (represents 70 to 80% inhibition of catatonia in comparison with the controls)
Monoamine oxidase
  inhibitory effects on the monoamine oxidase (in words): practically devoid of inhibitory effects

## CCCC(CCC)(NC)C(C)C [Compound 30, N-Methyl-1-n-propyl-1-isopropyl-n-butylamine]
Tremor-inducing action
  number of animals presenting tremors (denominator of ratio): 3
  ratio of index of reserpine-induced catatonia inhibition to number of animals presenting tremors: 1.33
[6]
  Inhibition of reserpine-induced catatonia: 4 (represents 100% inhibition of catatonia in comparison with the controls)
  index of reserpine-induced catatonia (numerator of ratio): 4 (represents 100% inhibition of catatonia in comparison with the controls)
In vivo
  selectivity ratio: > 25
[10]
  Inhibition of the neuroleptic-induced catatonia: 3 (represents 70 to 80% inhibition of catatonia in comparison with the controls)

## C#CCNC(CCC)(CCC)CCC [Compound 36, N-Propargyl-1,1-di-n-propyl-n-butylamine]
Tremor-inducing action
  number of animals presenting tremors (denominator of ratio): 5
  ratio of index of reserpine-induced catatonia inhibition to number of animals presenting tremors: 0.60
[6]
  Inhibition of reserpine-induced catatonia: 1 (represents 20 to 30% inhibition of catatonia in comparison with the controls)
  index of reserpine-induced catatonia (numerator of ratio): 3 (represents 70 to 80% inhibition of catatonia in comparison with the controls)
In vivo
  selectivity ratio: > 25
[10]
  Inhibition of the neuroleptic-induced catatonia: 4 (represents 100% inhibition of catatonia in comparison with the controls)
